The values below are quoted from earlier work in US9226944B2, “Herbal preparation for sleep apnea relief” (priority 2008, dated 2016).

For the data set the following is noted: combined with the plant vs freed from the other constituents; heat accelerates decomposition.

Consider `CN1C(CC(=O)c2ccccc2)CCCC1CC(O)c1ccccc1` (stereo not shown) [Lobeline, 2-[6-(2-hydroxy-2-phenyl-ethyl)-1-methyl-2-piperidyl]-1-phenyl-ethanone], for which the stability of lobeline entry is recorded as “decomposes when freed from contact with the other constituents of the plant”.
